Source: ChEMBL document CHEMBL5120923, “Tamarixetin Attenuated the Virulence of Staphylococcus aureus by Directly Targeting Caseinolytic Protease P” (J Nat Prod, 2022)
Converted amounts (≈) assume the structure as drawn. The source made the active and inactive calls. No cut-off for these calls is given here.

Tests used:
Staphylococcus aureus [1] = assay: Synergistic […] activity against Cmethicillin-resistant Staphylococcus aureus USA300 assessed as fractional inhibitory concentration index at 64 ug/ml in presence of cefotaxime by checker board method; format: functional; conditions: dose 64 µg/ml
Staphylococcus aureus [2] = assay: Inhibition of RNAIII gene transcription level in methicillin-resistant Staphylococcus aureus USA300 at 64 ug/ml by qPCR analysis; format: functional; conditions: dose 64.0 µg/ml
Staphylococcus aureus [3] = assay: (§1) Antibacterial activity against methicillin-resistant Staphylococcus aureus USA300 infected in C57BL/6J mouse pneumonia model assessed as reduction in TNF-alpha level in lung at 100 mg/Kg, sc administered every 12 hrs measured after 48 hrs by ELISA; format: functional, organism-based
Staphylococcus aureus [4] = assay: Synergistic antibacterial activity against methicillin-resistant Staphylococcus aureus USA300 assessed as cefotaxime MIC by checker board method; format: functional
Staphylococcus aureus [5] = assay: Antibacterial activity against methicillin-resistant Staphylococcus aureus USA300 infected in C57BL/6J mouse pneumonia model assessed as reduction in IL-6 level in lung at 100 mg/Kg, sc administered every 12 hrs measured after 48 hrs by ELISA; format: functional, organism-based
Staphylococcus aureus [6] = assay: (§2) Synergistic antibacterial activity against methicillin-resistant Staphylococcus aureus USA300 infected in C57BL/6J mouse pneumonia model assessed as reduction in infiltration of inflammatory cells in alveoli at 100 mg/Kg, sc administered every 12 hrs measured after 48 hrs in presence of cefotaxime by hematoxylin and eosin staining based histopathological analysis; format: functional, organism-based
Staphylococcus aureus [7] = assay: Antibacterial activity against methicillin-resistant Staphylococcus aureus USA300 assessed as inhibition of bacteria-mediated hemolytic activity on rabbit erythrocytes at 128 ug/ml incubated for 30 mins by hemolysis assay; format: functional; conditions: USA300, 0.5 h
Staphylococcus aureus [8] = assay: as §2, with “Antibacterial” for “Synergistic antibacterial”, “USA300 harboring delta ClpP mutant” for “USA300”, “hrs” for “hrs in presence of cefotaxime”; format: functional, organism-based
Staphylococcus aureus [9] = assay: Inhibition of PVL protein expression in methicillin-resistant Staphylococcus aureus Newman incubated for overnight by western blot analysis; format: functional; conditions: DDE = dose-dependent effect
A549 = assay: Cytotoxicity against human A549 cells at 64 ug/ml by MTT assay; format: toxicity, cell-based; conditions: dose 64 µg/ml
HEK-293T = assay: Cytotoxicity against human HEK-293T cells at 64 ug/ml by MTT assay; format: toxicity, cell-based; conditions: dose 64 µg/ml
Staphylococcus aureus [10] = assay: Antibacterial activity against methicillin-resistant Staphylococcus aureus USA300 infected in C57BL/6J mouse pneumonia model assessed as reduction in IFN-gamma level in lung at 100 mg/Kg, sc administered every 12 hrs measured after 48 hrs by ELISA; format: functional, organism-based
Staphylococcus aureus [11] = assay: Antibacterial activity against methicillin-resistant Staphylococcus aureus USA300 incubated for 24 hrs by microdilution broth assay; format: functional
Staphylococcus aureus [12] = assay: Antibacterial activity against methicillin-resistant Staphylococcus aureus USA300 harboring ClpP delta mutant assessed as inhibition of bacteria-mediated hemolytic activity on rabbit erythrocytes at 128 ug/ml incubated for 30 mins by hemolysis assay; format: functional; conditions: USA300, 0.5 h
Staphylococcus aureus [13] = assay: Inhibition of hla gene transcription level in methicillin-resistant Staphylococcus aureus USA300 at 64 ug/ml by qPCR analysis; format: functional; conditions: dose 64.0 µg/ml
Staphylococcus aureus [14] = assay: Binding affinity to methicillin-resistant Staphylococcus aureus USA300 ClpP assessed as association rate constant by surface plasmon resonance assay
[15] = Binding affinity to methicillin-resistant Staphylococcus aureus USA300 ClpP assessed as dissociation constant by surface plasmon resonance assay
[16] = Inhibition of methicillin-resistant Staphylococcus aureus USA300 ClpP using Suc-LY-AMC as fluorescent substrate preincubated for 1 hr followed by substrate addition and measured after 1 hr by FRET assay
HepG2 = assay: Cytotoxicity against human HepG2 cells at 64 ug/ml by MTT assay; format: toxicity, cell-based; conditions: dose 64 µg/ml
Staphylococcus aureus [17] = assay: as §2, with “Antibacterial” for “Synergistic antibacterial”, “hrs” for “hrs in presence of cefotaxime”; format: functional, organism-based
Staphylococcus aureus [18] = assay: as §1, with “bacterial load” for “TNF-alpha level”, “in presence of cefotaxime (reference value: 10.04+/- 0.56 log10CFU/g)” for “by ELISA”; format: functional
Staphylococcus aureus [19] = assay: Binding affinity to methicillin-resistant Staphylococcus aureus USA300 ClpP assessed as decrease in thermal stability of the protein at 16 to 64 ug/ml by SYPRO orange thermal shift assay; conditions: dose 16-64 µg/ml
Staphylococcus aureus [20] = assay: Inhibition of methicillin-resistant Staphylococcus aureus USA300 ClpP assessed as upregulation of urease production at 64 ug/ml incubated for 4 hr by spectrophotometry; conditions: dose 64.0 µg/ml
Staphylococcus aureus [21] = assay: (§3) Synergistic antibacterial activity against methicillin-resistant Staphylococcus aureus USA300 infected in C57BL/6J mouse pneumonia model assessed as lethality at 50 mg/Kg, sc administered every 12 hrs measured after 72 hrs in presence of cefotaxime (Rvb =40%); format: functional
Staphylococcus aureus [22] = assay: Inhibition of PVL protein expression in methicillin-resistant Staphylococcus aureus USA300 incubated for overnight by western blot analysis; format: functional; conditions: DDE = dose-dependent effect
Staphylococcus aureus [23] = assay: Inhibition of PSM-alpha gene transcription level in methicillin-resistant Staphylococcus aureus USA300 at 64 ug/ml by qPCR analysis; format: functional; conditions: dose 64.0 µg/ml
Staphylococcus aureus [24] = assay: Antibacterial activity against methicillin-resistant Staphylococcus aureus USA300 harboring delta ClpP mutant infected in C57BL/6J mouse pneumonia model assessed as reduction in mortality rate at 50 mg/Kg, sc administered every 12 hrs measured after 72 hrs (Rvb =80%); format: functional; set-up: scale not given: the % may be the effect or the level left
Staphylococcus aureus [25] = assay: Inhibition of agr gene transcription level in methicillin-resistant Staphylococcus aureus USA300 at 64 ug/ml by qPCR analysis; format: functional; conditions: dose 64.0 µg/ml
Staphylococcus aureus [26] = assay: Inhibition of spa gene transcription level in methicillin-resistant Staphylococcus aureus USA300 at 64 ug/ml by qPCR analysis; format: functional; conditions: dose 64.0 µg/ml
Staphylococcus aureus [27] = assay: Binding affinity to methicillin-resistant Staphylococcus aureus USA300 ClpP assessed as dissociation rate constant by surface plasmon resonance assay
Staphylococcus aureus [28] = assay: Inhibition of methicillin-resistant Staphylococcus aureus USA300 ClpP using Suc-LY-AMC as fluorescent substrate at 64 ug/ml preincubated for 1 hr followed by substrate addition and measured after 1 hr by FRET assay relative to control; conditions: dose 64.0 µg/ml, time 2.0 hrs
Staphylococcus aureus [29] = assay: Binding affinity to methicillin-resistant Staphylococcus aureus USA300 ClpP assessed as change in thermal stability by measuring protein deposition at 64 ug/ml by measured after 1 hr by cellular thermal shift assay (reference value: 65 degC); conditions: dose 64.0 µg/ml
Staphylococcus aureus [30] = assay: Inhibition of pvl gene transcription level in methicillin-resistant Staphylococcus aureus USA300 at 64 ug/ml by qPCR analysis; format: functional; conditions: dose 64.0 µg/ml
Staphylococcus aureus [31] = assay: as §3, with “reduction in bacterial load in lung” for “lethality”, “100” for “50”, “48” for “72”, “(reference value: 7.72 +/- 0.50 log10CFU/g)” for “(Rvb =40%)”; format: functional
[32] = Inhibition of agrA gene transcription level in methicillin-resistant Staphylococcus aureus USA300 at 64 ug/ml by qPCR analysis; format: functional

COc1ccc(-c2oc3cc(O)cc(O)c3c(=O)c2O)cc1O [TAMARIXETIN]
fractional inhibitory concentration index (FICI) (Staphylococcus aureus [1]): 0.375
inhibition (Staphylococcus aureus [2]): Active
Activity (Staphylococcus aureus [3]): Active
MIC (Staphylococcus aureus [4]): 16 µg/mL
Activity (Staphylococcus aureus [5]): Active
Activity (Staphylococcus aureus [6]): Active
inhibition at 128 µg/mL (Staphylococcus aureus [7]): > 55%
Activity (Staphylococcus aureus [8]): Active
inhibition (Staphylococcus aureus [9]): Dde
Activity (A549): Non-Toxic
Activity (HEK-293T): Non-Toxic
Activity (Staphylococcus aureus [10]): Active
MIC (Staphylococcus aureus [11]): 512 µg/mL (≈ 1620 µM)
inhibition at 128 µg/mL (Staphylococcus aureus [12]): 85.8%
inhibition (Staphylococcus aureus [13]): Active
Ka (Staphylococcus aureus [14]): 1.69 10^3/M/s
Kd [15]: 2.52 µM
IC50 [16]: 49.7 µM
Activity (HepG2): Non-Toxic
Activity (Staphylococcus aureus [17]): Active
Activity (Staphylococcus aureus [18]): 7.03 log10CFU/g
ΔTm (Staphylococcus aureus [19]): > 2 °C
inhibition (Staphylococcus aureus [20]): Active
Activity (Staphylococcus aureus [21]): 20%
inhibition (Staphylococcus aureus [22]): Dde
inhibition (Staphylococcus aureus [23]): Active
Activity (Staphylococcus aureus [24]): 70%
inhibition (Staphylococcus aureus [25]): Active
inhibition (Staphylococcus aureus [26]): Active
Kdiss (Staphylococcus aureus [27]): 4.26 10^-3/s
inhibition (Staphylococcus aureus [28]): 2.5%
Activity (Staphylococcus aureus [29]): Active
inhibition (Staphylococcus aureus [30]): Active
Activity (Staphylococcus aureus [31]): 7.03 log10CFU/g
inhibition at 64 µg/mL [32]: 83.9%
